Source: patent US6617351B1, “Amide, carbamate, and urea derivatives” (Eli Lilly and Company, priority 1998, dated 2003)

Target: T1, human GluR4B receptor (Homo sapiens, UniProt P48058)
T1 construct: expressed in transfected cells; host or cells: HEK293
Assay: potentiation of agonist-induced excitability of human GluR4B receptor expressed in HEK 293 cells
Assay type: cell-based
Description: The ability of compounds of formula I to potentiate glutamate receptor-mediated response may be determined using fluorescent calcium indicator dyes (Molecular Probes, Eugene, Oreg., Fluo-3) and by measuring glutamate-evoked efflux of calcium into GluR4 transfected HEK293 cells, as described in more detail below.
In one test, 96 well plates containing confluent monolayers of HEK cells stably expressing human GluR4B (obtained as described in European Patent Application Publication Number EP-A1-583917) are prepared. […]
Each test is then performed as follows. […] A second fluorescent reading is taken after 5 minutes incubation. 15 μl of 400 μM glutamate solution is then added to each well (final glutamate concentration 100 μM), and a third reading is taken. The activities of test compounds and cyclothiazide solutions are determined by subtracting the second from the third reading (fluorescence due to addition of glutamate in the presence or absence of test compound or cyclothiazide) and are expressed relative to enhance fluorescence produced by 100 μM cyclothiazide.
In another test, HEK293 cells stably expressing human GluR4 (obtained as described in European Patent Application Publication No. EP-A1-0583917) are used in the electro-physiological characterization of AMPA receptor potentiators. […] Responses to 1 mM glutamate are then determined in the presence of test compound. […]

T1 sequence (P48058 21-902): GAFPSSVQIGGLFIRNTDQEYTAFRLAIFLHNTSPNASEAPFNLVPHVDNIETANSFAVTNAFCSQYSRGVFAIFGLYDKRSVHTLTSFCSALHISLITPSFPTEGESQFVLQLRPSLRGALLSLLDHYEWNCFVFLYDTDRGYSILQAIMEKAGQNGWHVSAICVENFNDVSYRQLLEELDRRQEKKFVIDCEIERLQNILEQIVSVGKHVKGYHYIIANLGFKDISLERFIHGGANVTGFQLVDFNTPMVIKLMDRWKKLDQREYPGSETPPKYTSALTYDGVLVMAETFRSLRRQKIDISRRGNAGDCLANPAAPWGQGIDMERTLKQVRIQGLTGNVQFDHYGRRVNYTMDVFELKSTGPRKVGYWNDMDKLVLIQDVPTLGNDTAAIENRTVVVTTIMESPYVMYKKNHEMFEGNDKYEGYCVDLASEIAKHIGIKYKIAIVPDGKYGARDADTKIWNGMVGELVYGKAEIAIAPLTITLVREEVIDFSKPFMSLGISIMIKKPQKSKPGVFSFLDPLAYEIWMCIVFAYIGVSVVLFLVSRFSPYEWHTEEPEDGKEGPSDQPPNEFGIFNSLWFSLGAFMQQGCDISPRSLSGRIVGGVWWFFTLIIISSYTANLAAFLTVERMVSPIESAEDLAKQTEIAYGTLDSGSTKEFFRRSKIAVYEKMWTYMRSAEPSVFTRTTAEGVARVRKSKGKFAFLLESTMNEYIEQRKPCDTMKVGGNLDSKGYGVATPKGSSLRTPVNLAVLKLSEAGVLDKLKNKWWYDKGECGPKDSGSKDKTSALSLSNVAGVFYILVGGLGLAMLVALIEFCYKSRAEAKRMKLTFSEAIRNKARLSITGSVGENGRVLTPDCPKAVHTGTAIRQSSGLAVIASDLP

## NS(=O)(=O)c1cc2c(cc1Cl)NC(C1CC3C=CC1C3)NS2(=O)=O (stereo not shown) [cyclothiazide]
  potentiation of agonist-induced excitability: potentiate agonist-induced excitability
